# From publication PMC5750218, “Protein-inspired antibiotics active against vancomycin- and daptomycin-resistant bacteria” (Nature Communications, 2018)
# Where “and” joins values, the source holds several entries; their conditions need not be identical. Identical values can stand only once.
# Experiments:
# Assay in all cases: microbe, parasite or virus in culture
# [1] = test system: Methicillin-resistant S. aureus ATCC 43300
# Experimental: (§1) Antimicrobial activity of compounds was tested against a number of bacterial strains by broth microdilution (BMD) assay with MIC determination, including S. aureus (MSSA ATCC® 29213™, MRSA ATCC® 43300™, VISA NARSA NRS1, VISA NARSA NRS4), Streptococcus pneumoniae (MDR ATCC® 700677™) and Enterococcus faecium (MDR VanA ATCC® 51559™). ATCC strains were sourced from the American Type Culture Collection and NRS strains from NARSA (Network on Antimicrobial Resistance in S. aureus) via BEI Resources (www.beiresources.org). All compounds were prepared to 160 µg mL^−1 solution in water from a stock solution of 1 mM concentration.
# […] […] Standards ranged from 64 to 0.03 µg mL^−1 and compounds from 8 to 0.003 µg mL^−1 with final assay volumes of 100 µL per well. Gram-positive bacteria were cultured in Mueller Hinton broth (MHB) (Bactolaboratories, Cat. no. 211443) at 37 °C overnight. A sample of each culture was then diluted 40-fold in fresh MHB and incubated at 37 °C for 2–3 h. […] All the plates were covered and incubated at 37 °C for 24 h. MICs were the lowest concentration showing no visible growth.
# [2] = test system: Vancomycin-intermediate S. aureus NRS1
# Experimental: as §1
# (§2) The compounds, along with standard antibiotics were serially diluted twofold across the wells of 96-well non-binding surface (NBS) polystyrene plates (Corning 3641). […] Standards ranged from 64 to 0.03 µg mL^−1 and compounds from 8 to 0.003 µg mL^−1 with final assay volumes of 100 µL per well. Gram-positive bacteria were cultured in Mueller Hinton broth (MHB) (Bactolaboratories, Cat. no. 211443) at 37 °C overnight. A sample of each culture was then diluted 40-fold in fresh MHB and incubated at 37 °C for 2–3 h. […] All the plates were covered and incubated at 37 °C for 24 h. MICs were the lowest concentration showing no visible growth.
# [3] = test system: Vancomycin-resistant (VanA) Enterococcus faecium ATCC 51559
# Experimental: as §1, §2
# [4] = test system: Multi-drug-resistant S. pneumoniae ATCC 700677
# Experimental: as §1, §2
# [5] = test system: Bacillus subtilis ATCC 6633; assay type: cell-based; details: for Ac2Kaa concentration required to neutralise MIC activity / MIC: ATCC 6633, 48 h; for Molar excess of Ac2Kaa ligand required to antagonise antibacterial activity: [ligand]/[antibiotic], B. subtilis ATCC 6633, 24 h
# Experimental: All compounds were dissolved in H2O. Bacillus subtilis ATCC® 6633™ NRS-231 was cultured in MHB at 37 °C for 48 h. A sample of each culture was then diluted 40-fold in fresh MHB and incubated at 37 °C for 18 h. Compounds were added to each row of 96-well NBS plates (NBS, Corning 3641), in duplicate. The tripeptide N,N΄-diacetyl-L-Lys-D-Ala-D-Ala was serially diluted twofold across the compound-containing wells from 6400 to 3 µg mL^−1. To this the resultant mid-log phase cultures were diluted to the final concentration of 5 × 10^5 CFU mL^−1, then added to wells of the compound-containing plates. All the plates were covered and incubated at 37 °C for 24 h.
Compound,"MIC MRSA ([1]; ATCC 43300, 24 h) [µg/mL]",MIC VISA ([2]; Vancomycin-intermediate NRS1) [µg/mL],MIC VRE ([3]; ATCC 51559) [µg/mL],MIC MDR S.P. ([4]; ATCC 700677) [µg/mL],further results
"CNC(=O)[C@H](CCCCNC(=O)[C@H]1NC(=O)[C@H]2NC(=O)[C@H](NC(=O)[C@@H]3NC(=O)[C@H](CC(N)=O)NC(=O)[C@H](NC(=O)[C@@H](CC(C)C)NC)[C@H](O)c4ccc(c(Cl)c4)Oc4cc3cc(c4O[C@@H]3O[C@H](CO)[C@@H](O)[C@H](O)[C@H]3O[C@H]3C[C@](C)(N)[C@H](O)[C@H](C)O3)Oc3ccc(cc3Cl)[C@H]2O)c2ccc(O)c(c2)-c2c(O)cc(O)cc21)NC(=O)[C@H](CCN)NC(=O)[C@H](CCCCN)NC(=O)[C@H](CCCCNC(=O)c1ccc(Oc2ccccc2)cc1)NC(=O)c1ccc(Oc2ccccc2)cc1 [Compound 30, POB2K-K-Dab-K(Vancomycin)-NHMe]",<0.003,0.0925,0.75,<0.003,–
"CNC(=O)[C@H](CCCCNC(=O)[C@H]1NC(=O)[C@H]2NC(=O)[C@H](NC(=O)[C@@H]3NC(=O)[C@H](CC(N)=O)NC(=O)[C@H](NC(=O)[C@@H](CC(C)C)NC)[C@H](O)c4ccc(c(Cl)c4)Oc4cc3cc(c4O[C@@H]3O[C@H](CO)[C@@H](O)[C@H](O)[C@H]3O[C@H]3C[C@](C)(N)[C@H](O)[C@H](C)O3)Oc3ccc(cc3Cl)[C@H]2O)c2ccc(O)c(c2)-c2c(O)cc(O)cc21)NC(=O)[C@H](CCCCN)NC(=O)[C@H](CCN)NC(=O)[C@H](CCCCNC(=O)c1ccc(Oc2ccccc2)cc1)NC(=O)c1ccc(Oc2ccccc2)cc1 [Compound 31, POB2K-Dab-K-K(Vancomycin)-NHMe]",<0.003,0.0925,0.375,<0.003,–
"CNC(=O)[C@H](CCCCNC(=O)[C@H]1NC(=O)[C@H]2NC(=O)[C@H](NC(=O)[C@@H]3NC(=O)[C@H](CC(N)=O)NC(=O)[C@H](NC(=O)[C@@H](CC(C)C)NC)[C@H](O)c4ccc(c(Cl)c4)Oc4cc3cc(c4O[C@@H]3O[C@H](CO)[C@@H](O)[C@H](O)[C@H]3O[C@H]3C[C@](C)(N)[C@H](O)[C@H](C)O3)Oc3ccc(cc3Cl)[C@H]2O)c2ccc(O)c(c2)-c2c(O)cc(O)cc21)NC(=O)[C@H](CCCN)NC(=O)[C@H](CCCCN)NC(=O)[C@H](CCCCNC(=O)c1ccc(Oc2ccccc2)cc1)NC(=O)c1ccc(Oc2ccccc2)cc1 [Compound 32, POB2K-K-Orn-K(Vancomycin)-NHMe]",<0.003,0.0375,1,<0.003,–
"CNC(=O)[C@H](CCCCNC(=O)[C@H]1NC(=O)[C@H]2NC(=O)[C@H](NC(=O)[C@@H]3NC(=O)[C@H](CC(N)=O)NC(=O)[C@H](NC(=O)[C@@H](CC(C)C)NC)[C@H](O)c4ccc(c(Cl)c4)Oc4cc3cc(c4O[C@@H]3O[C@H](CO)[C@@H](O)[C@H](O)[C@H]3O[C@H]3C[C@](C)(N)[C@H](O)[C@H](C)O3)Oc3ccc(cc3Cl)[C@H]2O)c2ccc(O)c(c2)-c2c(O)cc(O)cc21)NC(=O)[C@H](CCCCN)NC(=O)[C@H](CCCN)NC(=O)[C@H](CCCCNC(=O)c1ccc(Oc2ccccc2)cc1)NC(=O)c1ccc(Oc2ccccc2)cc1 [Compound 33, POB2K-Orn-K-K(Vancomycin)-NHMe]",<0.003,0.125,1.5,0.007,–
"CNC(=O)[C@H](CCCCNC(=O)[C@H]1NC(=O)[C@H]2NC(=O)[C@H](NC(=O)[C@@H]3NC(=O)[C@H](CC(N)=O)NC(=O)[C@H](NC(=O)[C@@H](CC(C)C)NC)[C@H](O)c4ccc(c(Cl)c4)Oc4cc3cc(c4O[C@@H]3O[C@H](CO)[C@@H](O)[C@H](O)[C@H]3O[C@H]3C[C@](C)(N)[C@H](O)[C@H](C)O3)Oc3ccc(cc3Cl)[C@H]2O)c2ccc(O)c(c2)-c2c(O)cc(O)cc21)NC(=O)[C@H](CCCN)NC(=O)[C@H](CCCN)NC(=O)[C@H](CCCCNC(=O)c1ccc(Oc2ccccc2)cc1)NC(=O)c1ccc(Oc2ccccc2)cc1 [Compound 34, POB2K-Orn-Orn-K(Vancomycin)-NHMe]",<0.003,0.0185,0.5,<0.003,–
"CNC(=O)[C@H](CCCNC(=O)[C@H]1NC(=O)[C@H]2NC(=O)[C@H](NC(=O)[C@@H]3NC(=O)[C@H](CC(N)=O)NC(=O)[C@H](NC(=O)[C@@H](CC(C)C)NC)[C@H](O)c4ccc(c(Cl)c4)Oc4cc3cc(c4O[C@@H]3O[C@H](CO)[C@@H](O)[C@H](O)[C@H]3O[C@H]3C[C@](C)(N)[C@H](O)[C@H](C)O3)Oc3ccc(cc3Cl)[C@H]2O)c2ccc(O)c(c2)-c2c(O)cc(O)cc21)NC(=O)[C@H](CCCCN)NC(=O)[C@H](CCCCN)NC(=O)[C@H](CCCCNC(=O)c1ccc(Oc2ccccc2)cc1)NC(=O)c1ccc(Oc2ccccc2)cc1 [Compound 35, POB2K-KK-Orn(Vancomycin)-NHMe]",<0.003,0.25,1.25,0.005,–
"CCCCCCCCCCCCC(=O)N[C@@H](CCCCN)C(=O)N[C@@H](CCCCN)C(=O)N[C@@H](CCCCN)C(=O)N[C@@H](CCCCNC(=O)[C@H]1NC(=O)[C@H]2NC(=O)[C@H](NC(=O)[C@@H]3NC(=O)[C@H](CC(N)=O)NC(=O)[C@H](NC(=O)[C@@H](CC(C)C)NC)[C@H](O)c4ccc(c(Cl)c4)Oc4cc3cc(c4O[C@@H]3O[C@H](CO)[C@@H](O)[C@H](O)[C@H]3O[C@H]3C[C@](C)(N)[C@H](O)[C@H](C)O3)Oc3ccc(cc3Cl)[C@H]2O)c2ccc(O)c(c2)-c2c(O)cc(O)cc21)C(=O)O [Compound 38, nC12CO-KKK-K-(Vancomycin)-OH]",<0.003,0.03,0.1875,<0.003,–
"CCCCCCCCCCC(=O)NCC(=O)N[C@@H](CO)C(=O)N[C@@H](CCCCN)C(=O)N[C@@H](CCCCN)C(=O)N[C@@H](CCCCN)C(=O)N[C@@H](CCCCNC(=O)[C@H]1NC(=O)[C@H]2NC(=O)[C@H](NC(=O)[C@@H]3NC(=O)[C@H](CC(N)=O)NC(=O)[C@H](NC(=O)[C@@H](CC(C)C)NC)[C@H](O)c4ccc(c(Cl)c4)Oc4cc3cc(c4O[C@@H]3O[C@H](CO)[C@@H](O)[C@H](O)[C@H]3O[C@H]3C[C@](C)(N)[C@H](O)[C@H](C)O3)Oc3ccc(cc3Cl)[C@H]2O)c2ccc(O)c(c2)-c2c(O)cc(O)cc21)C(=O)O [Compound 39, nC10CO-GSKKK-K-(Vancomycin)-OH]",–,–,–,–,"Ac2Kaa concentration required to neutralise MIC activity [5]: 400 µg/mL; MIC [5]: 0.06 µg/mL; Molar excess of Ac2Kaa ligand required to antagonise antibacterial activity [5]: 30,569"
"CN[C@H](CC(C)C)C(=O)N[C@H]1C(=O)N[C@@H](CC(N)=O)C(=O)N[C@H]2C(=O)N[C@H]3C(=O)N[C@H](C(=O)N[C@H](C(=O)NCCCC[C@H](NC(=O)[C@H](CCCCN)NC(=O)[C@H](CCCCN)NC(=O)[C@H](CCCCN)NC(=O)c4ccc(Oc5ccccc5)cc4)C(=O)O)c4cc(O)cc(O)c4-c4cc3ccc4O)[C@H](O)c3ccc(c(Cl)c3)Oc3cc2cc(c3O[C@@H]2O[C@H](CO)[C@@H](O)[C@H](O)[C@H]2O[C@H]2C[C@](C)(N)[C@H](O)[C@H](C)O2)Oc2ccc(cc2Cl)[C@H]1O [Compound 40, POB-KKK-K-(Vancomycin)-OH]",–,–,–,–,Ac2Kaa concentration required to neutralise MIC activity [5]: 12.5 µg/mL; MIC [5]: 0.03 µg/mL; Molar excess of Ac2Kaa ligand required to antagonise antibacterial activity [5]: 916
POB2K-Dap-K-K(Vancomycin)-NHMe [Compound 28],–,–,–,–,"MIC MRSA ([1]; S. aureus ATCC 43300, NBS plates, MHB, 24 h, substance alone): <0.003 µg/mL and 0.0045 µg/mL; MIC VISA ([2]; S. aureus NRS1): 0.125 µg/mL and 0.155 µg/mL; MIC VRE ([3]; E. faecium MDR VanA ATCC 51559, substance alone): 0.75 µg/mL; MIC MDR S.P. ([4]; S. pneumoniae ATCC 700677): 0.015 µg/mL and 0.011 µg/mL"
